Measurements reported in patent publication US20090176817A1, “Method of Treatment of Diarrhea-Predominant Irritable Bowel Syndrome in a Subject” (priority 2005, published 2009).

Test system: diarrhea-predominant IBS subjects
Experiment: Study S241.3.009: weekly diary questions on adequate relief
Type: in vivo, human
Settings: for Overall responder rate, IBS symptoms / Overall responder rate, abdominal pain/discomfort / Overall responder rate, abnormal bowel habits: 26 weeks
Method: Study S241.3.009 was a Phase III, a double-blind, placebo-controlled, randomized, multinational study to investigate the safety and efficacy of 2 mg TID of cilansetron over 26 weeks in diarrhea-predominant IBS subjects. The study was conducted in 146 multinational study centers. A total of 1307 subjects consented to participate, and 806 subjects were randomized. A total of 792 subjects were analyzed for efficacy and 799 subjects were analyzed for safety. Diagnosis and main criteria for inclusion were IBS subjects satisfying the Rome I criteria (1992); the diarrhea-predominant sub-population of the Rome II criteria; and a minimum abdominal pain/discomfort, stool frequency and consistency determined during the run-in period. Subjects were treated with cilansetron 2 mg tablets given orally TID or matching placebo tablets given orally TID for 26 weeks.
The primary efficacy parameter was the overall response rate for IBS symptoms, based on the weekly question concerning adequate relief of IBS symptoms (abdominal pain/discomfort, abnormal bowel habits) over the 26 weeks period. A responder was a subject who responded “yes” at least 50% of the time during his/her treatment period, with minimum treatment duration of four weeks. The two main secondary efficacy parameters were overall responder rate based on the weekly question on adequate relief of abdominal pain/discomfort and abnormal bowel habits during the 26-week treatment period. The onset of action of cilansetron was also examined using daily diary data (stool frequency, and ratings of urgency and severity) during the initial 8 weeks of trial participation. An additional key secondary efficacy parameter was the number of months (one month equals four weeks) up to six months (24-weeks) that a subject was a responder for IBS symptoms, where a responder was defined as a subject who answered the weekly question with “yes” at least twice for that month. The responder rate for the weekly diary questions on adequate relief at each month and all months, the adequate relief rate, the number of subjects with adequate relief by week, daily diary questions, IBS-QOL scores, and the interruption of activities were also assessed. Safety was evaluated by physical examination, ECG, vital signs, laboratory evaluations, concomitant medications, and AEs.
Studies S24 1.3.OO6, S24 1.3.0 1 1, and S24 1.3.009 used the following efficacy measurements: • The subjects answered the following three questions with “yes” or “no” using a phone diary at the end of each week: • a) During the last week, did you experience adequate relief of your IBS symptoms, such as abdominal pain, abdominal discomfort, abnormal bowel habits? • b) During the last week, did you experience adequate relief of your abdominal pain and/or discomfort? • c) During the last week, did you experience adequate relief of your abnormal bowel habits? • The subjects rated the following symptoms using the phone diary at the end of each day: • abdominal pain/discomfort (five-point scale); • stool consistency (seven-point Bristol Stool Scale); • stool frequency (number of bowel movements each day); • urgency (five-point scale); • straining (yes or no); • feeling of incomplete defecation (yes or no); • bloating or feeling of abdominal distension (five-point scale). • In Studies S241 A006 and S241.3.009, subjects completed the IBS-QOL Survey at Baseline (Day 1) and at the end of treatment. In Study S24 1.3.0 1 1, subjects completed the IBS-QOL Survey at Baseline (Day 1), at the end of the three-month treatment period, and at the end of rerandomized treatment.
In all three pivotal efficacy studies, the primary and main secondary efficacy parameters were based on the weekly diary questions on adequate relief and included the following: • 1. Number of months (one month equals four weeks) that a subject was a responder for the weekly diary questions on adequate relief. […]

[1] = 2 mg TID, 26-week treatment period, observed case, ITT N = 395
[2] = 2 mg TID, Months 1 to 3, monthly LOCF, ITT N = 395
[3] = 2 mg TID, Months 1 to 3, observed case, ITT N = 395
[4] = 2 mg TID, Months 1 to 6, monthly LOCF, ITT N = 395
[5] = Baseline BMI: <30 kg/m^2, 26-week treatment period, observed case, ITT, 2 mg TID
[6] = Baseline BMI: <30 kg/m^2, Months 1 to 3, monthly LOCF, ITT, 2 mg TID

Cc1nccn1C[C@H]1CCc2c(c3cccc4c3n2CCC4)C1=O [Cilansetron, (R)-(−)-4,5,6,8,9,10-hexahydro-10-[(2-methyl-1H-imidazol-1-yl)methyl]-11H-pyrido-[3,2,1-jk]-carbazol-11-one]
Overall responder rate, adequate relief of IBS symptoms [1]: 234 (59) n (%) | Overall responder rate, adequate relief of abdominal pain/discomfort [1]: 239 (61) n (%) | Overall responder rate, adequate relief of abnormal bowel habits [1]: 253 (64) n (%) | Subjects who were responders for One month, Abdominal pain/discomfort [2]: 61 (15) n (%) | Subjects who were responders for One month, Abnormal bowel habits [2]: 49 (12) n (%) | Subjects who were responders for One month, IBS symptoms [2]: 55 (14) n (%) | Subjects who were responders for Three months, Abdominal pain/discomfort [2]: 159 (40) n (%) | Subjects who were responders for Three months, Abnormal bowel habits [2]: 165 (42) n (%) | Subjects who were responders for Three months, IBS symptoms [2]: 150 (38) n (%) | Subjects who were responders for Two months, Abdominal pain/discomfort [2]: 70 (18) n (%) | Subjects who were responders for Two months, Abnormal bowel habits [2]: 83 (21) n (%) | Subjects who were responders for Two months, IBS symptoms [2]: 80 (20) n (%) | Subjects who were responders for Zero months, Abdominal pain/discomfort [2]: 105 (27) n (%) | Subjects who were responders for Zero months, Abnormal bowel habits [2]: 98 (25) n (%) | Subjects who were responders for Zero months, IBS symptoms [2]: 110 (28) n (%) | Overall responder rate, adequate relief of IBS symptoms [3]: 219 (55) n (%) | Overall responder rate, adequate relief of abdominal pain/discomfort [3]: 221 (56) n (%) | Overall responder rate, adequate relief of abnormal bowel habits [3]: 243 (62) n (%) | Subjects who were responders for Five months, Abdominal pain/discomfort [4]: 53 (13) n (%) | Subjects who were responders for Five months, Abnormal bowel habits [4]: 61 (15) n (%) | Subjects who were responders for Five months, IBS symptoms [4]: 58 (15) n (%) | Subjects who were responders for Four months, Abdominal pain/discomfort [4]: 41 (10) n (%) | Subjects who were responders for Four months, Abnormal bowel habits [4]: 41 (10) n (%) | Subjects who were responders for Four months, IBS symptoms [4]: 52 (13) n (%) | Subjects who were responders for One month, Abdominal pain/discomfort [4]: 26 (7) n (%) | Subjects who were responders for One month, Abnormal bowel habits [4]: 17 (4) n (%) | Subjects who were responders for One month, IBS symptoms [4]: 25 (6) n (%) | Subjects who were responders for Six months, Abdominal pain/discomfort [4]: 133 (34) n (%) | Subjects who were responders for Six months, Abnormal bowel habits [4]: 136 (34) n (%) | Subjects who were responders for Six months, IBS symptoms [4]: 121 (31) n (%) | Subjects who were responders for Three months, Abdominal pain/discomfort [4]: 31 (8) n (%) | Subjects who were responders for Three months, Abnormal bowel habits [4]: 33 (8) n (%) | Subjects who were responders for Three months, IBS symptoms [4]: 25 (6) n (%) | Subjects who were responders for Two months, Abdominal pain/discomfort [4]: 26 (7) n (%) | Subjects who were responders for Two months, Abnormal bowel habits [4]: 22 (6) n (%) | Subjects who were responders for Two months, IBS symptoms [4]: 24 (6) n (%) | Subjects who were responders for Zero months, Abdominal pain/discomfort [4]: 85 (22) n (%) | Subjects who were responders for Zero months, Abnormal bowel habits [4]: 85 (22) n (%) | Subjects who were responders for Zero months, IBS symptoms [4]: 90 (23) n (%) | Overall responder rate, IBS symptoms (females): 63% | Overall responder rate, abdominal pain/discomfort (females): 64% | Overall responder rate, abnormal bowel habits (females): 67% | Overall responder rate, IBS symptoms (males): 55% | Overall responder rate, abdominal pain/discomfort (males): 57% | Overall responder rate, abnormal bowel habits (males): 60% | Overall responder rate, abdominal pain/discomfort (observed case): 61% | Overall responder rate, abnormal bowel habits (observed case): 64% | Overall responder rate, IBS symptoms (observed case, ITT): 59% | Overall responder rate, IBS symptoms (weekly LOCF): 60% | Overall responder rate, abdominal pain/discomfort (weekly LOCF): 61% | Overall responder rate, abnormal bowel habits (weekly LOCF): 63% | Overall responder rate difference vs placebo across diary questions (BMI≧30 kg/m^2): −10% to −1 | Overall responder rate, adequate relief of IBS symptoms [5]: 207 (63) n (%) | Overall responder rate, adequate relief of abdominal pain/discomfort [5]: 207 (63) n (%) | Overall responder rate, adequate relief of abnormal bowel habits [5]: 220 (67) n (%) | Number of months a subject was a responder: One month (Abdominal pain/discomfort) [6]: 51 (15) n (%) | Number of months a subject was a responder: One month (Abnormal bowel habits) [6]: 39 (12) n (%) | Number of months a subject was a responder: One month (IBS symptoms) [6]: 49 (15) n (%) | Number of months a subject was a responder: Three months (Abdominal pain/discomfort) [6]: 139 (42) n (%) | Number of months a subject was a responder: Three months (Abnormal bowel habits) [6]: 144 (44) n (%)
